Assay results as given in PubChem BioAssay AID652090 (Broad Institute, 2013).

Experiments:
Experiment in all cases: cellular target proteins captured by immobilized compound – cell lysate, INS-1E, SILAC competition, mass spectrometry, mechanism study for beta-cell protection project, late-stage follow-up (AID 652090)
Lrpprc [1] = details: INS-1E SILAC affinity pulldown, competition MS ratio, enrichment significance, stronger effect = lower value
[2] = target: Glyceraldehyde-3-phosphate dehydrogenase (Rattus norvegicus) (UniProt P04797); details: INS-1E SILAC affinity pulldown, competition MS ratio; Gapdh; stronger effect = higher value
Gapdh = details: INS-1E SILAC affinity pulldown, competition MS ratio, enrichment significance, stronger effect = lower value
Mcm6 [3] = details: INS-1E SILAC affinity pulldown, competition MS ratio, enrichment significance, stronger effect = lower value
Mcm6 [4] = target: Mcm6 (UniProt Q62724); details: INS-1E SILAC affinity pulldown, competition MS ratio, stronger effect = higher value
Cand2 [5] = details: INS-1E SILAC affinity pulldown, competition MS ratio, enrichment significance, stronger effect = lower value
Xpo1 [6] = target: Xpo1 (UniProt Q80U96); details: INS-1E SILAC affinity pulldown, competition MS ratio, stronger effect = higher value
Ahcy = details: INS-1E SILAC affinity pulldown, competition MS ratio, enrichment significance, stronger effect = lower value
Ap3b2 = details: INS-1E SILAC affinity pulldown, competition MS ratio
Timm44 [7] = details: INS-1E SILAC affinity pulldown, competition MS ratio, enrichment significance, stronger effect = lower value
LOC303448 = details: INS-1E SILAC affinity pulldown, competition MS ratio
Blvrb = details: INS-1E SILAC affinity pulldown, competition MS ratio
Cand1 = details: INS-1E SILAC affinity pulldown, competition MS ratio
RGD1309903 = details: INS-1E SILAC affinity pulldown, competition MS ratio
Ipo9 = details: INS-1E SILAC affinity pulldown, competition MS ratio
Retsat [8] = target: Retsat (UniProt Q8VHE9); details: INS-1E SILAC affinity pulldown, competition MS ratio, stronger effect = higher value
Timm44 [9] = target: Timm44 (UniProt O35094); details: INS-1E SILAC affinity pulldown, competition MS ratio, stronger effect = higher value
Xpo1 [10] = details: INS-1E SILAC affinity pulldown, competition MS ratio, enrichment significance, stronger effect = lower value
Cand2 [11] = target: Cand2 (UniProt Q9R0L4); details: INS-1E SILAC affinity pulldown, competition MS ratio, stronger effect = higher value
Lrpprc [12] = target: Lrpprc (UniProt Q5SGE0); details: INS-1E SILAC affinity pulldown, competition MS ratio, stronger effect = higher value
Tbc1d15 = details: INS-1E SILAC affinity pulldown, competition MS ratio
Usp9x = details: INS-1E SILAC affinity pulldown, competition MS ratio
Retsat [13] = details: INS-1E SILAC affinity pulldown, competition MS ratio, enrichment significance, stronger effect = lower value
Ipo4 = details: INS-1E SILAC affinity pulldown, competition MS ratio
[14] = target: Adenosylhomocysteinase (Rattus norvegicus) (UniProt P10760); details: INS-1E SILAC affinity pulldown, competition MS ratio; Ahcy; stronger effect = higher value
[15] = enrichment significance, stronger effect = lower value

Adenosylhomocysteinase (Rattus norvegicus), sequence (P10760 whole entry, looked up): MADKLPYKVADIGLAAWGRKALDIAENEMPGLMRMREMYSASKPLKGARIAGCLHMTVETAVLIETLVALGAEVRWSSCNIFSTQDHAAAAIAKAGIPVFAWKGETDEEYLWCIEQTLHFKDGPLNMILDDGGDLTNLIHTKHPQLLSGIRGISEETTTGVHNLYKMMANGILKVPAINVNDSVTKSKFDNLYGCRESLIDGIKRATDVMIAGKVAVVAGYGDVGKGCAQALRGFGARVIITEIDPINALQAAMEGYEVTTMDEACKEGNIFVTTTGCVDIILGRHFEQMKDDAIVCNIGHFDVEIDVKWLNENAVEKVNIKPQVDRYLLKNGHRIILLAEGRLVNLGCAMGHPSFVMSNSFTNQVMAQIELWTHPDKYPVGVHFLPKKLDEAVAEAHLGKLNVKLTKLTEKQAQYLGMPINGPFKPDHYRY
Mcm6 (UniProt Q62724), sequence (Q62724 whole entry, looked up): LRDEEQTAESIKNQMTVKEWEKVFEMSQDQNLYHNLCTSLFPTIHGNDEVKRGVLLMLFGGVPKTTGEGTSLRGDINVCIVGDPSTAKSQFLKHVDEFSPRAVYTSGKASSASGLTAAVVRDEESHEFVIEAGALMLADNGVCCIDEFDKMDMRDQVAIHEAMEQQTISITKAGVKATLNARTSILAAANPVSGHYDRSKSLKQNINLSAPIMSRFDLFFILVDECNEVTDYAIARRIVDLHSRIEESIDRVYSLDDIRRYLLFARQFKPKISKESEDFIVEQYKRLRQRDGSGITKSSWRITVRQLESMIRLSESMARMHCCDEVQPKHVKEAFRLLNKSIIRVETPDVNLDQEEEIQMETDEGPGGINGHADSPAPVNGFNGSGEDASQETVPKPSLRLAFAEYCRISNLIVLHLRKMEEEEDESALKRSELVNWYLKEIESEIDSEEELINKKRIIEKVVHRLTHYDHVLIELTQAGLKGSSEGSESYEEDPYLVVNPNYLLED
Cand2 (UniProt Q9R0L4), sequence (Q9R0L4 whole entry, looked up): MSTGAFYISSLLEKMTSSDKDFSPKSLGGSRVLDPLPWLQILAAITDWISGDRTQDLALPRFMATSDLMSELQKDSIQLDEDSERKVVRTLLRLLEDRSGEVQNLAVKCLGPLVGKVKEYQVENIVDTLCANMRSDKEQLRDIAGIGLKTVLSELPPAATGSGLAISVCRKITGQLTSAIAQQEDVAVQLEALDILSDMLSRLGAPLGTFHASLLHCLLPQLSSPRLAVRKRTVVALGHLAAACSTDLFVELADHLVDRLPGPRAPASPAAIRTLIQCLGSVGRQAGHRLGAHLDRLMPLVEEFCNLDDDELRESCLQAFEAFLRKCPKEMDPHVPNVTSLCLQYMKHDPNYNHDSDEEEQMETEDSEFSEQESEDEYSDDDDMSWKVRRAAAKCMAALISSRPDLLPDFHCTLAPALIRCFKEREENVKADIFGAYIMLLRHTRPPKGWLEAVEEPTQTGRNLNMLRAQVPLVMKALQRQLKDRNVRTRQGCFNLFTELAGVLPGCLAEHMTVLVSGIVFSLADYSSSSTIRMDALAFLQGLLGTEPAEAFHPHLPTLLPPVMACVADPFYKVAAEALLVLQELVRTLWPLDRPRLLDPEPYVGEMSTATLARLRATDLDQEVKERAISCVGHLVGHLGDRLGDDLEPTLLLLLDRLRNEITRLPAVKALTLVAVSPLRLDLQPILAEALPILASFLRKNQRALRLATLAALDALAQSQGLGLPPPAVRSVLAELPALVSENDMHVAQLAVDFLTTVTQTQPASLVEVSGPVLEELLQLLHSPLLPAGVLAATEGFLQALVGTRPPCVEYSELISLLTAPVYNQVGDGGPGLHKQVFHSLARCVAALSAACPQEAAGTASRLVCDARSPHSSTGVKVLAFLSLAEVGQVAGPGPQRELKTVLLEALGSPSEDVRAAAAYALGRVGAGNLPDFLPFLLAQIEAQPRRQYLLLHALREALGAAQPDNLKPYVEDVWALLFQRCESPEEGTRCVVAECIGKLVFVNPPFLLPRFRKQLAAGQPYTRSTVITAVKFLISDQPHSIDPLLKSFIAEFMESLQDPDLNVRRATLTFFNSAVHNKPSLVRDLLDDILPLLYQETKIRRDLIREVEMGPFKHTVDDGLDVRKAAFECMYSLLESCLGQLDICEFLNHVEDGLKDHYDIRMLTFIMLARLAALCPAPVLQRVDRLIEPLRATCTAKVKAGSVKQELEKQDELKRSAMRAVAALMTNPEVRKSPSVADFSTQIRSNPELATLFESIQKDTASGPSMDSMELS
Retsat (UniProt Q8VHE9), sequence (Q8VHE9 whole entry, looked up): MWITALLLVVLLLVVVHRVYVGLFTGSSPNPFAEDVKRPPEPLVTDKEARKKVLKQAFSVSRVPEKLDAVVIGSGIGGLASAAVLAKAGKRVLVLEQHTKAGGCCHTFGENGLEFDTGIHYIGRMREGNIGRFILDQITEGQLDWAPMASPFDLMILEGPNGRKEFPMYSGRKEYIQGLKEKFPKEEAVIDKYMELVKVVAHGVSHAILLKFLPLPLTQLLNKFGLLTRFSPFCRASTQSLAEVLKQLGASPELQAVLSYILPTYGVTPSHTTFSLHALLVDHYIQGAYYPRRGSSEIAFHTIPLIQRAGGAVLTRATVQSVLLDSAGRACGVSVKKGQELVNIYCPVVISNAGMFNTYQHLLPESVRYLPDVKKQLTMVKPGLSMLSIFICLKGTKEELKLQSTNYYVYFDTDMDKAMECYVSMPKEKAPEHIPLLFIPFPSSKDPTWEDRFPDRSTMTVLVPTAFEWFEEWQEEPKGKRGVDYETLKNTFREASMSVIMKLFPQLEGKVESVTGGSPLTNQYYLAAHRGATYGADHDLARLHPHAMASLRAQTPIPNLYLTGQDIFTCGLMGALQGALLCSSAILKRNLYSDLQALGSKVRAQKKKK
Glyceraldehyde-3-phosphate dehydrogenase (Rattus norvegicus), sequence (P04797 whole entry, looked up): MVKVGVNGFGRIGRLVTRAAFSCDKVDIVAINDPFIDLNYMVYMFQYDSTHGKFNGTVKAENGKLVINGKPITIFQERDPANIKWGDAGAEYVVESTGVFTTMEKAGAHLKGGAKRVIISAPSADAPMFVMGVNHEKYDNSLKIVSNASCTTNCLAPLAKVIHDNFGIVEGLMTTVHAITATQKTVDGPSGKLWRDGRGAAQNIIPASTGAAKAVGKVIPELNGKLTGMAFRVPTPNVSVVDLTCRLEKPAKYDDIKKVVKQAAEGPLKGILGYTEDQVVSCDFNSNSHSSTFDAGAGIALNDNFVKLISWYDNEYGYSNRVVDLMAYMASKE
Xpo1 (UniProt Q80U96), sequence (Q80U96 whole entry, looked up): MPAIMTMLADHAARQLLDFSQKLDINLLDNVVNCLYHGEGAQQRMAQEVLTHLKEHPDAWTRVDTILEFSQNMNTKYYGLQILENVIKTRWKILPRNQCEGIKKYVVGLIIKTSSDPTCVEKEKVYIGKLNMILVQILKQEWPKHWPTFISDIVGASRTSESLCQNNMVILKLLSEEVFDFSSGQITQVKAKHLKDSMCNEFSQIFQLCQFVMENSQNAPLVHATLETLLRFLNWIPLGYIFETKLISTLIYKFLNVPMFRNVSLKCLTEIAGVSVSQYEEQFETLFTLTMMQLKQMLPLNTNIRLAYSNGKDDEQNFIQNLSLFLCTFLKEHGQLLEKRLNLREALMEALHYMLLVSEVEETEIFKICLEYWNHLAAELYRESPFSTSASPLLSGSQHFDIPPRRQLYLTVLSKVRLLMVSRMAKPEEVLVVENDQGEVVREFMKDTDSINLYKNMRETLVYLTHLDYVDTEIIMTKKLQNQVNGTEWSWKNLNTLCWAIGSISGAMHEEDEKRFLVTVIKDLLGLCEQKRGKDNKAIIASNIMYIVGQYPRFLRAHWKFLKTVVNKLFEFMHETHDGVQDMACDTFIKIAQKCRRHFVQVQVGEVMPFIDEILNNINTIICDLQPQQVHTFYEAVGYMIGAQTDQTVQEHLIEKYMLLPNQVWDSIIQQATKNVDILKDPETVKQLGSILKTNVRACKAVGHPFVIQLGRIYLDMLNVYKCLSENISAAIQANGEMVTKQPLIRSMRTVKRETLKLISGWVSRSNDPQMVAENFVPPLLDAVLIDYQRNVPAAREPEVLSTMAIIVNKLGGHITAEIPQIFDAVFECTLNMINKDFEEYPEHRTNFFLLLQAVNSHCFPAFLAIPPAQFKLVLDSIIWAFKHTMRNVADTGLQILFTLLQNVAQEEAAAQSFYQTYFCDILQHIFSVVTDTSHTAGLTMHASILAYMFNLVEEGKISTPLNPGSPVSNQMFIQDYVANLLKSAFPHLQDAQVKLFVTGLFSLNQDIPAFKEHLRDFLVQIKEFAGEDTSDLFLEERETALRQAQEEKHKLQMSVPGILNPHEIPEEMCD
Timm44 (UniProt O35094), sequence (O35094 whole entry, looked up): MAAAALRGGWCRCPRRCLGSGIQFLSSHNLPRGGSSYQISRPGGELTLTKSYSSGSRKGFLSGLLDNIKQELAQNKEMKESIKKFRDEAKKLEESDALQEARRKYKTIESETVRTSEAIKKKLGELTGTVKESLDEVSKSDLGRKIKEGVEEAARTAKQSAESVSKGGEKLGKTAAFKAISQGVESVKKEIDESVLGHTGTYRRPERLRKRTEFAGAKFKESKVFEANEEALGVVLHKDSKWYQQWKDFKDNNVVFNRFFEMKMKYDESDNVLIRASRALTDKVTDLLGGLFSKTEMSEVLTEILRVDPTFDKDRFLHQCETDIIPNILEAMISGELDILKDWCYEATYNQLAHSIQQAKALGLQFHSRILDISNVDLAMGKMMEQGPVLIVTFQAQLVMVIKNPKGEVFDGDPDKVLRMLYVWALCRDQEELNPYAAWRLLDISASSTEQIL

Structure (SMILES): C[C@@H]1CN([C@@H](C)CO)C(=O)c2cccc(NC(=O)Nc3cccc4ccccc34)c2O[C@H]1CN(C)S(=O)(=O)c1ccc2c(c1)OCCO2
- p-value (Lrpprc [1]): 0.00102
- log2 SILAC competition ratio [2]: 0.72
- p-value (Gapdh): 7.85e-05
- p-value (Mcm6 [3]): 2.29e-26
- log2 SILAC competition ratio (Mcm6 [4]): 1.63
- p-value (Cand2 [5]): 0.0511
- log2 SILAC competition ratio (Xpo1 [6]): 0.56
- p-value (Ahcy): 8.65e-05
- p-value (Ap3b2; [15]): 1.01e-06
- log2 SILAC competition ratio (Ap3b2; stronger effect = higher value): 0.84
- p-value (Timm44 [7]): 0.0266
- p-value (LOC303448; [15]): 3.33e-05
- log2 SILAC competition ratio (LOC303448; stronger effect = higher value): 0.74
- p-value (Blvrb; [15]): 7.19e-23
- log2 SILAC competition ratio (Blvrb; stronger effect = higher value): 1.52
- p-value (Cand1; [15]): 7.49e-06
- log2 SILAC competition ratio (Cand1; stronger effect = higher value): 0.78
- p-value (RGD1309903; [15]): 0.000418
- log2 SILAC competition ratio (RGD1309903; stronger effect = higher value): 0.67
- p-value (Ipo9; [15]): 0.00514
- log2 SILAC competition ratio (Ipo9; stronger effect = higher value): 0.58
- log2 SILAC competition ratio (Retsat [8]): 0.58
- log2 SILAC competition ratio (Timm44 [9]): 0.52
- p-value (Xpo1 [10]): 0.0109
- log2 SILAC competition ratio (Cand2 [11]): 0.496
- log2 SILAC competition ratio (Lrpprc [12]): 0.64
- p-value (Tbc1d15; [15]): 6.97e-05
- log2 SILAC competition ratio (Tbc1d15; stronger effect = higher value): 0.72
- p-value (Usp9x; [15]): 2.07e-09
- log2 SILAC competition ratio (Usp9x; stronger effect = higher value): 0.98
- p-value (Retsat [13]): 0.00538
- p-value (Ipo4; [15]): 0.000164
- log2 SILAC competition ratio (Ipo4; stronger effect = higher value): 0.7
- log2 SILAC competition ratio [14]: 0.72
